Data from paper PMC8519022, “Diarylethene‐Based Photoswitchable Inhibitors of Serine Proteases” (Angewandte Chemie (International Ed. in English), 2021).
Where two headings read alike, the source gives them in different places. *1 amine or outer side, *2 acyl side, *3 side chain or, on linkers, in order; H or OH if unused. Where a SMILES comes first, the peptide text is derived from it. Bridges are numbered along the chain shown (N, C = ends). X1 = Cc1sc(C(=O)[C@@H]2CCCN2[*:2])cc1C1=C(c2cc(C(=O)[*:1])sc2C)CCC1

Legend:
[1] = target: T1, Bos taurus trypsin 1 (T1) (Bos taurus, UniProt P00760); test: Trypsin inhibition, Ki by Lineweaver-Burk analysis;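 further: trypsin activity followed by spectrophotometric hydrolysis kinetics of the chromogenic substrate BAPNA in Tris buffer, Ki obtained from double-reciprocal Lineweaver–Burk plots at several substrate concentrations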
T1 sequence (P00760 24-246): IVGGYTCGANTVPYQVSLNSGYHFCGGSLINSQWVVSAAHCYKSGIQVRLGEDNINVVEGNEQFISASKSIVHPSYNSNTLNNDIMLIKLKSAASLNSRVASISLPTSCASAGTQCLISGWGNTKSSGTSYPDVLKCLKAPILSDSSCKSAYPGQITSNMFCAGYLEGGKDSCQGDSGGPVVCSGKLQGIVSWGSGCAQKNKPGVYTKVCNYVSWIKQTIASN
Protocol: (§7) The inhibition of trypsin and α-chymotrypsin was investigated by two methods. First, the inhibition was determined at a fixed enzyme and substrate concentration, whereas the inhibitor concentration varied. By plotting the protease activity against an inhibitor’s concentration, IC50 (the half-maximal inhibitory concentration) was determined.
(§8) Lineweaver–Burk analysis (see below), the Ki values for all peptide inhibitors were determined with high accuracy.
(§9) All measurements were performed with p-nitroaniline-based chromogenic substrates (λabs = 405 nm) in 96-well microtiter plates using
EpochTM 2 microplate spectrophotometer. For trypsin measurements the Tris buffer (50 mM Tris-HCl, 25 mM CaCl2, 0.005% Tween®
For the measurements, a fresh 0.92 µM trypsin solution was prepared from the storage aliquot and kept on ice.
A stock solution of the substrate BAPNA (Nα-Benzoyl-DL-arginine 4-nitroanilide hydrochloride) at the concentration of 50 mM in
aqueous dimethyl sulfoxide (DMSO) (100 mg of BAPNA in 4.6 mL of DMSO:water mixture 1:1) was pre pared and stored at RT.
peptide solutions at the concentration of 100 µM, which was further diluted to 10, 1, or 0.1 µM if required, were prepared in Milli-Q®
For the determination of IC50, a double dilution series of inhibit ors were prepared in a 96 -well plate (12 concentrations, two repeats
for each concentration, 200 µL of Tris buffer in each well). Subsequently, a trypsin solution (20 µL, 150 nM) was added to ea ch well
with the tested peptide and to the control row. Soluti ons in each well were intensely mixed using a multichannel pipette (from lower
concentration to higher). After a pre -incubation period (5 min), the substrate BAPNA was added to each well (20 µL, 25 mM).
solutions were thoroughly mixed with the multicha nnel pipette, and the kinetics of substrate hydrolysis was recorded with an interval
of 1 min between measurements over 20 min. The total volume in each well was 240 µL, final trypsin and BAPNA concentrations
were 12.5 nM and 2.08 mM, respectively. The mea n values of the two repeats of the slope of absorption vs. time curves were
calculated. The activities at different inhibitor concentrations were then calculated by taking the control curves’ slope val ues (no
inhibitor) as the 100% enzyme activity. The inh ibition activity IC 50 against α-chymotrypsin (α-chymotrypsin from bovine pancreas
(§10) type II) was measured in the same way except that a different substrate, Ac-EAPF-pNA (Ac-Glu-Ala-Pro-Phe-pNA), was used (20
Inhibitory constants Ki were determined by Lineweaver-Burk (LWB) double-reciprocal analysis according to a published protocol.[S5]
Briefly, a fresh inhibitor/enzyme mixture was prepared in a glass vial and distributed to 2x6 wells (200 µL in each well, enzyme
concentration after dilution 12 nM). An enzyme without an inhibitor was added to the control wells. Aliquots of varying substrate stock
solutions were added with a multichannel pipette to each well. For trypsin inhibition experiments, BAPNA (20 µL per well of 20, 22.7,
26, 29.8, 34, 40 mM) and for α-chymotrypsin Ac-EAPF-pNA (20 µL per well of 16, 12.48, 10, 8, 6.4, 5.44 mM) were used, respectively.
Well contents were thoroughly mixed using a multichannel pipette, and a plate reader was used to monitor the hydrolysis kinetics
(sampling interval of 1 min over 20 min).

trypsin [2] = target: T2, trypsin (Bos taurus, UniProt P00760); details: for k H [M^−1 s^−1] (closed): pH 8.2
T2 sequence (P00760 24-246): T1 sequence (P00760 24-246)
Protocol: Analysis of the proteolytic stability
(§11) Proteolytic stability of the peptides was characterized by determining hydrolysis rates (kH) by the action of trypsin in a 50 mM Tris–
(§12) HCl buffer, pH 8.2, supplemented with 25 mM CaCl2 and 0.005% Tween®20 at 22°C. The peptides at a concentration of 50 μM were
(§13) mixed with trypsin (0.5 μM) in a 2 mL total volume. At selected time intervals, 70 μL samples of the mixture were taken, quenched
(§14) by addition 130 μL 2% aqueous formic acid, and immediately analyzed by analytical HPLC. The kH values were calculated from the
(§15) time-dependent data assuming zero-order kinetics (zero-order kinetics applies due to the high substrate/enzyme ratio of 100 to 1).
(§16) For the fitting the linear part of the hydrolysis curve was taken excluding the last time point in which the entire peptide inhibitor was
(§17) analogues could hydrolyze at two positions: at the Lys (P1 position) of the inhibitory loop and after the stabilizing loop’s arginine
(§18) residue (P4 position).[S6] The ultimate product (i.e., cleaved at both positions) had, therefore, a MALDI-TOF-MS detectable mass
(§19) The identity of each peak was confirmed by MALDI -TOF-MS. Detection – 220 nm, hydrolysis time is indicated at each chromatogram.

[3] = target: T3, α-chymotrypsin from bovine pancreas type II (Bos taurus, UniProt P00766); test: α-Chymotrypsin inhibition, IC50 at fixed enzyme and substrate concentration; format: biochemical; design: host or cells: bovine pancreas
Source text: (§1) 6. Protease inhibition assays
(§2) With the second method, using
(§3) EpochTM 2 microplate spectrophotometer.
(§4) deionized ultrapure water.
(§5) concentration to higher). […] The
(§6) inhibitor) as the 100% enzyme activity.

[4] = Method: The photostability in repeated cycles of reversible photoisomerization was studied on three selected compounds (linear three-peptide […]
samples were prepared in the same manner as for UV-Vis absorption characterization, namely at 20 mM in deoxygenated water.
The UV irradiation was done at spectral range of 320 -400 nm, 167 mW/cm 2 for 15 s; the visible light irradiation at 570 nm, 143 mW/cm2 for 60 s (both using LUMATEC® light source).
Figure S3. Photostability study of the three selected peptides at 20 mM in deoxygenated water at 22°C in 15 cycles of reversible photoisomerization with visible (570 nm, 143 mW/cm2 for 60 s) and UV light (320-400 nm, 167 mW/cm2 for 15 s). The left plots show absorption spectra after each 5 cycles (normalized at 575 nm for ring-closed forms). The right plots show the % of ring-closed form measured as absorbance at 575 nm.

other E. coli strains = other E. coli strains in MHB medium; ref S7; cited from earlier work
[5] = target: T3, α-chymotrypsin from bovine pancreas type II; test: α-Chymotrypsin inhibition, Ki by Lineweaver-Burk analysis
Protocol: as §7, §8, §9
EpochTM 2 microplate spectrophotometer. For trypsin measurements the Tris buffer (50 mM Tris-HCl, 25 mM CaCl2, 0.005% Tween® […]
solutions were thoroughly mixed with the multicha nnel pipette, and the kinetics of substrate hydrolysis was recorded with an interval […]
calculated. The activities at different inhibitor concentrations were then calculated by taking the control curves’ slope val ues (no […]
as §10
Inhibitory constants Ki were determined by Lineweaver-Burk (LWB) double-reciprocal analysis according to a published protocol.[S5] […]
Well contents were thoroughly mixed using a multichannel pipette, and a plate reader was used to monitor the hydrolysis kinetics […]

trypsin [6] = target: T2, trypsin; test: Proteolytic stability: T1-induced hydrolysis rate constants (kH); details: non-photoswitchable reference compound; peptide 50 μM, trypsin 0.5 μM, 50 mM Tris-HCl pH 8.2, 25 mM CaCl2, 0.005% Tween 20, 22°C, analytical HPLC, zero-order fit
Protocol: Analysis of the proteolytic stability
as §11, §12, §13, §14, §15, §16, §17, §18, §19

trypsin [7] = target: T2, trypsin; test: Trypsin inhibition, IC50 at fixed enzyme and substrate concentration; format: biochemical
Source text: as §1, §2, §3, §4, §5, §6

In the case of `CC[C@H](C)[C@@H]1NC(=O)[C@@H]2CCCN2C(=O)[C@@H]2CCCN2C(=O)[C@H]([C@@H](C)CC)NC(=O)[C@H](CO)NC(=O)[C@H](CCCCN)NC(=O)[C@H]([C@@H](C)O)NC(=O)[C@@H]2CSSC[C@H](NC1=O)C(=O)N[C@@H](Cc1ccccc1)C(=O)N[C@@H](CC(C)C)C(=O)N1CCC[C@H]1C(=O)c1cc(c(C)s1)C1=C(CCC1)c1cc(sc1C)C(=O)N[C@@H](C(C)C)C(=O)N[C@@H](CCCNC(=N)N)C(=O)N2` [Peptide S10n] (VRCTKSIPPICFL; disulfide 3-11; linker N-C via X1), the Ki ([1]; K i [nM] (closed)) is reported as 181 ± 7 nM, the Ki ([1]; K i [nM] (open)) is reported as 17.5 ± 0.7 nM and the “k H (closed) /k H (open)” value (trypsin [2]) is reported as 15.7. For the same compound, the “k H [M^−1 s^−1] (closed)” value (trypsin [2]) was 3.6±0.3×10^−3 M^−1 s^−1 and the IC50 [3] was 50000 to 100000 nM.

With `CC[C@H](C)[C@@H]1NC(=O)[C@@H]2CCCN2C(=O)[C@@H]2CCCN2C(=O)[C@H]([C@@H](C)CC)NC(=O)[C@H](CO)NC(=O)[C@H](CCCCN)NC(=O)[C@H]([C@@H](C)O)NC(=O)[C@@H]2CSSC[C@H](NC1=O)C(=O)N[C@@H](CCCNC(=N)N)C(=O)N[C@@H](CC(C)C)C(=O)N1CCC[C@H]1C(=O)c1cc(c(C)s1)C1=C(CCC1)c1cc(sc1C)C(=O)N[C@@H](C(C)C)C(=O)N[C@@H](Cc1ccccc1)C(=O)N2` [Peptide S10i] (VFCTKSIPPICRL; disulfide 3-11; linker N-C via X1) the “degradation in repeated cycles of reversible photoisomerization” value (“degradation in repeated cycles” below) [4] was “less than 30%”, the Ki ([1]; K i [nM] (closed)) was 44.8 ± 2.2 nM and the Ki ([1]; K i [nM] (open)) was 5.1 ± 0.4 nM. The “k H (closed) /k H (open)” value (trypsin [2]) was 4.2 and the “k H [M^−1 s^−1] (closed)” value (trypsin [2]) was 2.2±0.3×10^−4 M^−1 s^−1.

For `CC[C@H](C)[C@H](NC(=O)[C@H](CCCNC(=N)N)NC(=O)[C@H](CCCNC(=N)N)NC(=O)[C@H](Cc1ccccc1)NC(=O)[C@H](CC(C)C)NC(=O)[C@H](CCCNC(=N)N)NC(=O)[C@@H](N)CCCNC(=N)N)C(=O)N[C@@H](CC(C)C)C(=O)N[C@@H](CCCNC(=N)N)C(=O)N[C@@H](Cc1c[nH]c2ccccc12)C(=O)N[C@@H](CC(C)C)C(N)=O` [BP100‐RW] (H-RRLFRRILRWL-NH2), the MIC (other E. coli strains) is given as 0.2 to 0.5 µg/mL.

Work on `CC[C@H](C)[C@@H]1NC(=O)[C@@H]2CCCN2C(=O)[C@@H]2CCCN2C(=O)[C@H]([C@@H](C)CC)NC(=O)[C@H](CO)NC(=O)[C@H](Cc2ccccc2)NC(=O)[C@H]([C@@H](C)O)NC(=O)[C@@H]2CSSC[C@H](NC1=O)C(=O)N[C@@H](Cc1ccccc1)C(=O)N1CCC[C@H]1C(=O)N[C@@H](CC(=O)O)C(=O)NCC(=O)N[C@@H](CCCNC(=N)N)C(=O)N2` [SFTI‐5F, reference compound] (cyclo(CFPDGRCTFSIPPI); disulfide 1-7) yielded a Ki [5] of 2.8 nM and an IC50 ([3]; non-photoswitchable control, enzyme 12.5 nM, Ac-EAPF-pNA 1.33 mM, read-out: IC50, nM (α-chymotrypsin inhibition)) of 6.6 nM.

With `CC[C@H](C)[C@@H]1NC(=O)[C@@H]2CCCN2C(=O)[C@@H]2CCCN2C(=O)[C@H]([C@@H](C)CC)NC(=O)[C@H](CO)NC(=O)[C@H](CCCCN)NC(=O)[C@H]([C@@H](C)O)NC(=O)[C@@H]2CSSC[C@H](NC1=O)C(=O)N[C@@H](CCCNC(=N)N)C(=O)N1CCC[C@H]1C(=O)N[C@@H](CC(=O)O)C(=O)NCC(=O)N[C@@H](Cc1ccccc1)C(=O)N2` [SFTI‐1i, reference compound] (cyclo(CRPDGFCTKSIPPI); disulfide 1-7) the “k H [M^−1 s^−1]” value (trypsin [6]) was 2.0±0.2×10^−5 M^−1 s^−1 and the IC50 (trypsin [7]; non-photoswitchable reference, trypsin 12.5 nM, BAPNA 2.08 mM, Tris pH 8.2, 5 min pre-incubation, read-out: IC50, nM (trypsin inhibition)) was 15.6 nM.

For `CC[C@H](C)[C@@H]1NC(=O)[C@@H]2CCCN2C(=O)[C@@H]2CCCN2C(=O)[C@H]([C@@H](C)CC)NC(=O)[C@H](CO)NC(=O)[C@H](CCCCN)NC(=O)[C@H]([C@@H](C)O)NC(=O)[C@H](C)NC(=O)[C@H](CCCNC(=N)N)NC(=O)c2cc(c(C)s2)C2=C(CCC2)c2cc(sc2C)C(=O)[C@@H]2CCCN2C(=O)[C@H](Cc2ccccc2)NC(=O)[C@H](C)NC1=O` [Peptide S2] (RATKSIPPIAF; linker N-C via X1), the “degradation in repeated cycles” value [4] was “less than 30%”, the Ki ([1]; K i [nM] (closed)) was 659 ± 33 nM and the Ki ([1]; K i [nM] (open)) was 203 ± 6 nM.

With `CC(=O)N[C@@H](C)C(=O)N1CCC[C@H]1C(=O)c1cc(C2=C(c3cc(C(=O)N[C@@H](C)C(N)=O)sc3C)CCC2)c(C)s1` [Ac‐Ala‐1‐Ala‐NH2] the “degradation in repeated cycles” value ([4]; 15 cycles, UV 320-400 nm 167 mW/cm2 15 s, visible 570 nm 143 mW/cm2 60 s, 20 mM in deoxygenated water, 22°C, absorbance 575 nm) was “less than 30%”.

For `CC[C@H](C)[C@@H]1NC(=O)[C@@H]2CCCN2C(=O)[C@@H]2CCCN2C(=O)[C@H]([C@@H](C)CC)NC(=O)[C@H](CO)NC(=O)[C@H](Cc2ccccc2)NC(=O)[C@H]([C@@H](C)O)NC(=O)[C@@H]2CSSC[C@H](NC1=O)C(=O)N[C@@H](Cc1ccccc1)C(=O)N[C@@H](CC(C)C)C(=O)N1CCC[C@H]1C(=O)c1cc(c(C)s1)C1=C(CCC1)c1cc(sc1C)C(=O)N[C@@H](C(C)C)C(=O)N[C@@H](CCCNC(=N)N)C(=O)N2` [Peptide S5F] (VRCTFSIPPICFL; disulfide 3-11; linker N-C via X1), the IC50 (trypsin [7]) was 50000 to 100000 nM.
